Test results as given in the supplement of paper PMC11061612.

Key:
Experiment in all cases: combination Emax (second highest fraction inhibited in the dose matrix, 72 h); higher = more inhibition; extreme values may be limits of the assay
[1] = tested on: A101D (Melanoma)
Method in brief: (§1)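 After 24 hours at 37°C and 5% CO2 in 1536-well plates, cells in DMEM/F12 or RPMI plus 10% FBS received two-drug dose matrices for 72 hours. Viability came from CellTiter-Glo 2.0 luminescence and was scaled as inhibition, anchored at 0 by vehicle wells and at 1 by blank wells. Combination Emax is taken as the second-highest inhibition in the matrix, and Bliss excess as the observed combination effect less EA + EB − EA·EB, with EA and EB the single-agent effects.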

[2] = tested on: AU565 (Breast Carcinoma)
Method in brief: as §1

[3] = tested on: CA46 (Burkitt's Lymphoma)
Method in brief: as §1

[4] = tested on: COLO-792 (Melanoma)
Method in brief: as §1

[5] = tested on: DU-4475 (Breast Carcinoma)
Method in brief: as §1

[6] = tested on: EPLC-272H (Other Solid Carcinomas)
Method in brief: as §1

[7] = tested on: ESO26 (Esophageal Adenocarcinoma)
Method in brief: as §1

[8] = tested on: EW-16 (Ewing's Sarcoma)
Method in brief: as §1

[9] = tested on: G-402 (Other Solid Carcinomas)
Method in brief: as §1

[10] = tested on: GA-10 (Burkitt's Lymphoma)
Method in brief: as §1

[11] = tested on: GCT (Other Solid Carcinomas)
Method in brief: as §1

[12] = tested on: HT55 (Colorectal Carcinoma)
Method in brief: as §1

[13] = tested on: JIMT-1 (Breast Carcinoma)
Method in brief: as §1

[14] = tested on: JVM-2 (B-Cell Non-Hodgkin's Lymphoma)
Method in brief: as §1

[15] = tested on: Jurkat (T-Lymphoblastic Leukemia)
Method in brief: as §1

[16] = tested on: KYSE-140 (Esophageal Squamous Cell Carcinoma)
Method in brief: as §1

[17] = tested on: NB13 (Neuroblastoma)
Method in brief: as §1

[18] = tested on: NCI-H2228 (Lung Adenocarcinoma)
Method in brief: as §1

[19] = tested on: OACp4C (Esophageal Adenocarcinoma)
Method in brief: as §1

[20] = tested on: RH-41 (Rhabdomyosarcoma)
Method in brief: as §1

SMILES | combination Emax [1] | combination Emax [2] | combination Emax [3] | combination Emax [4] | combination Emax [5] | combination Emax [6] | combination Emax [7] | combination Emax [8] | combination Emax [9] | combination Emax [10] | combination Emax [11] | combination Emax [12] | combination Emax [13] | combination Emax [14] | combination Emax [15] | combination Emax [16] | combination Emax [17] | combination Emax [18] | combination Emax [19] | combination Emax [20]
Cc1cc2ncnn2cc1Nc1ncc2c(n1)n(C1CCOCC1)c(=O)n2C [AZD7648] + CCN(CCO)CCCOc1ccc2c(Nc3cc(CC(=O)Nc4cccc(F)c4)[nH]n3)ncnc2c1 [AZD2811] (first compound max 10 µM, 7x7, partner max 1 µM) | 0.39 | 0.366 | 0.418 | 0.46 | 0.23 | 0.496 | 0 | 0.445 | 0.663 | 0.852 | 0.312 | 0.229 | 0.348 | 0.7 | 0.232 | 0.353 | 0.518 | 0.434 | 0.63 | 0.329
Cc1cc2ncnn2cc1Nc1ncc2c(n1)n(C1CCOCC1)c(=O)n2C [AZD7648] + CN(C)CCCOc1ccc(-c2ccc3ncc4c(c3c2)n(C2CCOCC2)c(=O)n4C)cn1 [AZD0156] (first compound max 10 µM, 7x7, partner max 1 µM) | 0.374 | 0.593 | 0.288 | 0.351 | 0.0619 | 0.458 | 0 | 0.192 | 0.51 | 0.446 | 0.343 | 0.169 | 0.348 | 0.622 | 0.23 | 0.216 | 0.303 | 0.407 | 0.329 | 0.282
CN(CCO)CC[C@H](CSc1ccccc1)Nc1ccc(S(=O)(=O)NC(=O)c2ccc(N3CCC([C@@H](O)c4ccccc4-c4ccc(Cl)cc4)CC3)cc2)cc1S(=O)(=O)C(F)(F)F [AZD4320] + CCN(CCO)CCCOc1ccc2c(Nc3cc(CC(=O)Nc4cccc(F)c4)[nH]n3)ncnc2c1 [AZD2811] (first compound max 1 µM, 7x7, partner max 1 µM) | 0.667 | 0.34 | 0.356 | 0.781 | 0.971 | 0.635 | 0.112 | 0.973 | 0.776 | 0.661 | 0.239 | 0.376 | 0.319 | 0.801 | 0.512 | 0.334 | 1 | 0.271 | 0.863 | 0.828
CN(CCO)CC[C@H](CSc1ccccc1)Nc1ccc(S(=O)(=O)NC(=O)c2ccc(N3CCC([C@@H](O)c4ccccc4-c4ccc(Cl)cc4)CC3)cc2)cc1S(=O)(=O)C(F)(F)F [AZD4320] + Cn1cnc2c(F)c(Nc3ccc(Br)cc3Cl)c(C(=O)NOCCO)cc21 [Selumetinib] (first compound max 1 µM, 7x7, partner max 3 µM) | 0.781 | 0.421 | 0.19 | 0.913 | 1 | 0.562 | 0.3 | 0.913 | 0.553 | 0.491 | 0.352 | 0.721 | 0.268 | 0.889 | 0.798 | 0.289 | 1 | 0.203 | 0.967 | 0.855
COc1nnc2ccc(N3CCC(c4ccc(OCCN5CCN(C)C(=O)[C@H]5C)cc4)CC3)nn12 [AZD5153] + CN(CC[C@H](CSC1=CC=CC=C1)NC2=C(C=C(C=C2)S(=O)(=O)NC(=O)C3=CC=C(C=C3)N4CCC(CC4)[C@H](C5=CC=CC=C5C6=CC=C(C=C6)Cl)O)S(=O)(=O)C(F)(F)F)CCO [AZD4320] (first compound max 1 µM, 7x7, partner max 1 µM) | 0.79 | 0.386 | 0.598 | 0.856 | 1 | 0.868 | 0.754 | 0.674 | 0.846 | 0.672 | 0.595 | 0.519 | 0.384 | 0.866 | 0.975 | 0.695 |  | 0.357 | 0.918 | 1
CN(CCO)CC[C@H](CSc1ccccc1)Nc1ccc(S(=O)(=O)NC(=O)c2ccc(N3CCC([C@@H](O)c4ccccc4-c4ccc(Cl)cc4)CC3)cc2)cc1S(=O)(=O)C(F)(F)F [AZD4320] + C1CN(CCC1(C(=O)N[C@@H](CCO)C2=CC=C(C=C2)Cl)N)C3=NC=NC4=C3C=CN4 [Capivasertib] (first compound max 1 µM, 7x7, partner max 3 µM) | 0.429 | 0.413 | 0.251 | 0.78 | 0.883 | 0.642 | 0.345 | 0.461 | 0.327 | 0.586 | 0.449 | 0.292 | 0.2 | 0.702 | 0.883 | 0.664 | 1 | 0.329 | 0.954 | 1
CN(CCO)CC[C@H](CSc1ccccc1)Nc1ccc(S(=O)(=O)NC(=O)c2ccc(N3CCC([C@@H](O)c4ccccc4-c4ccc(Cl)cc4)CC3)cc2)cc1S(=O)(=O)C(F)(F)F [AZD4320] + C=CCn1c(=O)c2cnc(Nc3ccc(N4CCN(C)CC4)cc3)nc2n1-c1cccc(C(C)(C)O)n1 [AZD1775] (first compound max 1 µM, partner max 1 µM) |  | 0.829 | 0.667 | 0.944 | 1 | 0.909 | 0.709 | 0.904 | 0.491 | 1 | 0.481 | 0.899 | 0.842 | 0.981 | 0.993 | 0.849 | 1 | 0.512 | 0.938 | 1
N#Cc1cnc(Nc2cc(NC[C@H]3CNCCO3)c(C(F)(F)F)cn2)cn1 [SRA737] + CCc1c2c(nc3ccc(O)cc13)-c1cc3c(c(=O)n1C2)COC(=O)[C@]3(O)CC [SN-38] (first compound max 10 µM, 7x7, partner max 0.3 µM) |  |  |  |  |  |  |  |  |  |  |  |  |  |  |  |  | 0.88 |  |  | 
CC(=O)c1c(C)c2cnc(Nc3ccc(N4CCNCC4)cn3)nc2n(C2CCCC2)c1=O [Palbociclib] + CN(CC[C@H](CSC1=CC=CC=C1)NC2=C(C=C(C=C2)S(=O)(=O)NC(=O)C3=CC=C(C=C3)N4CCC(CC4)[C@H](C5=CC=CC=C5C6=CC=C(C=C6)Cl)O)S(=O)(=O)C(F)(F)F)CCO [AZD4320] (first compound max 10 µM, 7x7, partner max 1 µM) | 0.738 | 0.227 | 0.336 | 0.975 | 0.943 | 0.594 | 0.0747 | 0.64 | 0.781 | 0.95 | 0.421 | 0.498 | 0.257 | 0.829 | 0.917 | 0.303 |  | 0.275 | 0.839 | 0.883
Cc1cc2ncnn2cc1Nc1ncc2c(n1)n(C1CCOCC1)c(=O)n2C [AZD7648] + COc1cc([C@@H]2c3cc4c(cc3[C@@H](O[C@@H]3O[C@@H]5CO[C@@H](C)O[C@H]5[C@H](O)[C@H]3O)[C@H]3COC(=O)[C@H]23)OCO4)cc(OC)c1O [Etoposide] (first compound max 10 µM, 7x7, partner max 10 µM) |  |  |  |  |  |  |  |  |  |  |  |  |  |  |  |  | 0.653 |  |  | 
C[C@@H](c1ccc2nccn2c1)n1nnc2ncc(-c3cnn(C)c3)nc21 [Savolitinib] + CN(CC[C@H](CSC1=CC=CC=C1)NC2=C(C=C(C=C2)S(=O)(=O)NC(=O)C3=CC=C(C=C3)N4CCC(CC4)[C@H](C5=CC=CC=C5C6=CC=C(C=C6)Cl)O)S(=O)(=O)C(F)(F)F)CCO [AZD4320] (first compound max 1 µM, 7x7, partner max 1 µM) | 0.409 | 0.182 | 0.0638 | 0.798 | 0.871 | 0.257 | 0.127 | 0.416 | 0.187 | 0.138 | 0.2 | 0.155 | 0.213 | 0.417 | 0.556 | 0.236 |  | 0.134 | 0.78 | 0.806
CN(CCO)CC[C@H](CSc1ccccc1)Nc1ccc(S(=O)(=O)NC(=O)c2ccc(N3CCC([C@@H](O)c4ccccc4-c4ccc(Cl)cc4)CC3)cc2)cc1S(=O)(=O)C(F)(F)F [AZD4320] + Nc1ccn([C@@H]2O[C@H](CO)[C@@H](O)C2(F)F)c(=O)n1 [Gemcitabine] (first compound max 1 µM, 7x7, partner max 0.3 µM) |  |  |  |  |  |  |  |  |  |  |  |  |  |  |  |  | 0.934 |  |  | 
N#Cc1cnc(Nc2cc(NC[C@H]3CNCCO3)c(C(F)(F)F)cn2)cn1 [SRA737] + O=c1[nH]cc(F)c(=O)[nH]1 [5-Fluorouracil] (first compound max 10 µM, 7x7, partner max 20 µM) |  |  |  |  |  |  |  |  |  |  |  |  |  |  |  |  | 0.732 |  |  | 
N#Cc1cnc(Nc2cc(NC[C@H]3CNCCO3)c(C(F)(F)F)cn2)cn1 [SRA737] + C=CCn1c(=O)c2cnc(Nc3ccc(N4CCN(C)CC4)cc3)nc2n1-c1cccc(C(C)(C)O)n1 [AZD1775] (first compound max 10 µM, partner max 1 µM) |  |  |  |  |  |  |  |  |  |  |  |  |  |  |  |  | 0.853 |  |  | 
